According to publication PMC3009740 (PLoS ONE, 2010):
Changes are numbered by the printed parent chain. Where two headings read alike, the source gives them in different places.

Tests used:
CHO hM1 cells = test: Protein content (method of Bradford) of CHO hM1 cells after pretreatment; type: cell-based, Chinese hamster
Text: In order to account for these variances, the method of Bradford was used to quantify changes in protein content in CHO hM1 cells. […] This is in contrast to the complete inhibition of binding observed prior to prolonged waiting.

[1] = biological target: T1, human M1 muscarinic acetylcholine receptor (Homo sapiens, UniProt P11229); test: cell-based
T1 sequence (P11229 1-460): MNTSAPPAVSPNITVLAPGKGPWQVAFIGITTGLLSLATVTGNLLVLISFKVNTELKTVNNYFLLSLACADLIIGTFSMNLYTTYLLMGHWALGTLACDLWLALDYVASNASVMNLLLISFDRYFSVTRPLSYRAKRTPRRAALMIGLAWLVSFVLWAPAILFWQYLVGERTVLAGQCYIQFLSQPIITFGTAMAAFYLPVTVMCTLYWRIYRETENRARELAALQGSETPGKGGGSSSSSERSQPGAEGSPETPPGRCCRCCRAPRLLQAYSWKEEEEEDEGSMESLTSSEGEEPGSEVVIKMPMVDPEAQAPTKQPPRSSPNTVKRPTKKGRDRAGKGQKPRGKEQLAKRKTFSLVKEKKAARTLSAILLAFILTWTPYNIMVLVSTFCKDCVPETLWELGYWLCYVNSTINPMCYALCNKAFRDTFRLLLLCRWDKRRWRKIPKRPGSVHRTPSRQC
Protocol: (§1) Labeled cells were harvested by trypsinization, centrifuged, and washed three times in HEPES buffer to remove unincorporated myo-[^3H]inositol. Labeled cells were distributed to assay tubes (500,000 cells/tube), and allowed to incubate for 15 min at 37°C. […] In all cases, the reaction was allowed to proceed in the presence of 10 mM LiCl for 1 h at 37°C after the addition of agonist before being stopped with chloroform/methanol (2∶1) and centrifuged (450×g; 15 min).
Alternatively, cells were grown in 24-well plates and loaded with myo-[^3H]inositol as described above. […] In all cases, the reaction was stopped with 0.3 M HClO4, neutralized with 0.15 M K2CO3, and samples were centrifuged (1500×g; 15 min).
(§2) For all experiments, [^14C]inositol-1-phosphate was added to each sample as an internal recovery standard. Total inositol phosphates were separated by ion exchange chromatography (AG1-X8 resin). The amount of radioactivity (disintegrations per minute) in each sample was determined by liquid scintillation spectrometry and adjusted for ^14C recovery.
(§3) In functional assays of PI hydrolysis, raw data were corrected for ^14C recovery to account for individual column differences in efficiency. Individual concentration-response curve data were fitted to a four-parameter logistic function using Prism to obtain estimates of EC50 (half-effective concentration) and Emax.

[2] = biological target: T2, rat M1 mutant^123 muscarinic acetylcholine receptor (Rattus norvegicus, UniProt P08482); details: mutant^123 cells stimulated with agonist (data not shown)
T2 sequence (P08482 1-460): T1 sequence (P11229 1-460) with A5V, T254S, P309S, R320K, A337G, I413V
Protocol: as §1, §2, §3

[3] = biological target: T3, rat M1 wild-type muscarinic acetylcholine receptor (Rattus norvegicus, UniProt P08482); details: naïve CHO rM1 cells
T3 sequence (P08482 1-460): T1 sequence (P11229 1-460) with A5V, T254S, P309S, R320K, A337G, I413V
Protocol: as §1, §2, §3

[4] = biological target: T2, rat M1 mutant^123 muscarinic acetylcholine receptor; details: washout, control 2700±300
[5] = biological target: T3, rat M1 wild-type muscarinic acetylcholine receptor; details: washout, control 2200±90
[6] = biological target: T3, rat M1 wild-type muscarinic acetylcholine receptor
[7] = biological target: T2, rat M1 mutant^123 muscarinic acetylcholine receptor
[8] = 1 h pretreatment, washout, 23 h wait

## C[N+](C)(C)CCOC(N)=O [carbachol]
CHO hM1 cells; 24-h pretreatment, at 10 mM carbachol
  maximal decrease in protein content: 26±6.6%

## O=C1CCCN1CC#CCN1CCCC1 [oxotremorine]
[1]
  Emax, maximal accumulation of inositol phosphates: 10000±800 dpm
  increase in the EC50 of agonist-stimulated PI hydrolysis: 32 fold
[1]; pEC50 of PI hydrolysis
  EC50: 200 nM

## CCCCCCOc1nsnc1C1=CCCN(C)C1 [xanomeline, 3-[3-hexyloxy-1,2,5-thiadiazo-4-yl]-1,2,5,6-tetrahydro-1-methylpyridine]
[2]
  PI response: did not produce a significant PI response
[3]
  Emax, maximal response: 18000±5500 dpm
[4]; 3 µM xanomeline 1 h, 23 h wait
  Bmax, maximal cell-surface receptor density: 3400±610 dpm/100,000 cells
[4]; 3 µM xanomeline 1 h
  Bmax, maximal cell-surface receptor density: 3000±380 dpm/100,000 cells
[4]; 3 µM xanomeline 24 h
  Bmax, maximal cell-surface receptor density: 3600±320 dpm/100,000 cells
CHO hM1 cells; 1-h pretreatment followed by washing and prolonged waiting, at 10 µM xanomeline
  maximal decrease in protein content: 32±2%
CHO hM1 cells; 24-h pretreatment, at 10 µM xanomeline
  maximal decrease in protein content: 65±7%
[5]; 3 µM xanomeline 1 h, 23 h wait
  Bmax, maximal cell-surface receptor density: 1100±150 dpm/100,000 cells
[5]; 3 µM xanomeline 1 h
  Bmax, maximal cell-surface receptor density: 2600±430 dpm/100,000 cells
[5]; 3 µM xanomeline 24 h
  Bmax, maximal cell-surface receptor density: 1300±150 dpm/100,000 cells
[6]; 1 h pretreatment, washout
  Imax, maximal percentage inhibition of [3H]NMS binding: 95±0.5%
[6]; [8]
  Imax, maximal percentage inhibition of [3H]NMS binding: 99±2.3%
  percentage of high-affinity binding sites: 74±1.1%
[6]; 24 h pretreatment, washout
  Imax, maximal percentage inhibition of [3H]NMS binding: 97±0.5%
  percentage of high-affinity binding sites: 47±7.7%
[6]; Control: naïve cells
  Imax, maximal percentage inhibition of [3H]NMS binding: 99±0.6%
[7]; 1 h pretreatment, washout
  Imax, maximal percentage inhibition of [3H]NMS binding: 96±0.7%
[7]; [8]
  Imax, maximal percentage inhibition of [3H]NMS binding: 60±7.4 %
[7]; 24 h pretreatment, washout
  Imax, maximal percentage inhibition of [3H]NMS binding: 90±2.9%
[7]; Control: naïve cells
  Imax, maximal percentage inhibition of [3H]NMS binding: 99±0.5%
